Experimental data: patent US20210387983A1, “CRYSTALLINE ALK5 INHIBITORS AND USES THEREOF” (THERAVANCE BIOPHARMA R&D IP, LLC, priority 2020, published 2021)
pKi: −log10 of the molar value.

How the values were obtained:
[1] = molecular target: T1, recombinant human ALK5 (TGF-βR1) protein (Homo sapiens, UniProt P36897); assay: Biochemical ALK5 (TGF-βR1) assay to measure pKi (LANCE Ultra ULight kinase assay); conditions: apparent pKi, converted from pIC50 using the Cheng-Prusoff equation
T1 construct: purchased Life Technologies PR9075A
T1 sequence (P36897 34-503): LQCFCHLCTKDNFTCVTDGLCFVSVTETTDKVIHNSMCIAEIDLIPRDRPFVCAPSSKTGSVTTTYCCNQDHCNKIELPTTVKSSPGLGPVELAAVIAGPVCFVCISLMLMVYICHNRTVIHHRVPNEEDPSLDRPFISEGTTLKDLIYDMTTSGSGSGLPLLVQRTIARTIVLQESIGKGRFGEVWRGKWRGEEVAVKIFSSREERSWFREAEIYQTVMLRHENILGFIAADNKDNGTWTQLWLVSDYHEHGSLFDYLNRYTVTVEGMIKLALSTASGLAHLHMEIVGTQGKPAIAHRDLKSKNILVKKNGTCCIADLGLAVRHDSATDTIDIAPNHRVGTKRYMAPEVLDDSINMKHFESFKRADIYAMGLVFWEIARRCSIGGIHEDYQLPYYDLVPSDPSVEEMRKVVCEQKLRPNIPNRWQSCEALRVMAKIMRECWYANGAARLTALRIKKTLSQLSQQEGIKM
Description: The assays were performed in a 384-well plate (24 columns×16 wells/rows). An Echo®550 Liquid Handler (Labcyte) was used to prepare various intermediate concentrations of the compound of Formula I in 100% DMSO. From the intermediate concentrations, a range of concentrations (from 10 μM to […] corresponding to volumes up to 105 nL) were prepared and ejected into a final assay plate to be used to create individual dose response curves. To a separate column within the assay plate, 105 nL of DMSO in each well was used to establish a maximum assay signal. […]
Next, 2 μL of 125 μM ATP (5× final, 125 μM ATP prepared in assay buffer with 2 mM DTT) was added to the incubated mixtures, covered with a MicroClime® Environmental Lid (Product No. LLS-0310, Labcyte) and immediately transferred to 37° C. […] The plate was then read on a Perkin Elmer EnVision Plate Reader using europium specific reader settings with excitation and emission wavelengths set to 320 or 340 nm and 665 nm, respectively.
For dose-response analyses, percent inhibition versus compound concentrations were plotted, and pIC50 values were determined from a 4-parameter robust fit model with GraphPad Prism V5 Software (GraphPad Software, Inc., La Jolla, Calif.). […] Results were expressed as pIC50 (negative logarithm of IC50) and subsequently converted to pKi (negative logarithm of dissociate constant, Ki) using the Cheng-Prusoff equation. […]

[2] = system: DSS-induced intestinal fibrosis; assay: Prophylactic study in murine DSS-induced intestinal fibrosis model; assay type: in vivo, C57BL/6J mice; conditions: oral gavage starting on day one of DSS administration; sacrifice 9 weeks
Description: The compound of Formula I is expected to slow, halt or reverse the progression of intestinal fibrosis in a murine colitis model. Six to 8-week old male C57BL/6J mice are tagged and weighed. The drinking water of the animals is treated with 2.5% dextran sulfate sodium (DSS) for 7 days to induce acute colitis, followed by 2 days of normal drinking water. Three, 3-week cycles of 2.5% DSS treatment (1 week of 2.5% DSS in water; 2 weeks of normal water) are then completed to induce intestinal fibrosis. Starting on day one of DSS administration, mice are treated with either vehicle control or the compound of Formula I at an appropriate amount and frequency via oral gavage (e.g., once daily). The animals are sacrificed 9 weeks after the first DSS administration, then distal, mid and proximal sections of the colon harvested for histologic analysis, RNA extraction and cytokine measurement.

[3] = system: intestinal fibrosis in an adoptive T-cell transfer model of colitis; assay: Efficacy study in adoptive T-cell transfer model of colitis; assay type: in vivo, CB17 SCID mice; conditions: oral gavage once diarrhea and 10% body weight decrease observed; sacrifice 45 days after induction
Description: The compound of Formula I is expected to slow, halt or reverse the progression of intestinal fibrosis in an adoptive T-cell transfer model of colitis. Six- to 8-week old female CB17 SCID mice are tagged and weighed, then administered CD4^+ CD25^− CD62L^+ naïve T cells isolated from the spleens of Balb/C mice (IP; 1×10^6 cells) to induce colitis. Once diarrhea and a 10% or greater decrease in body weight are observed (typically around week 2), mice are treated with either vehicle control or the compound of Formula I at an appropriate amount and frequency via oral gavage (e.g., once daily). Animals are sacrificed 45 days after induction of colitis, then distal, mid and proximal sections of the colon harvested for histologic analysis, RNA extraction and cytokine measurement.

[4] = system: monocrotaline (MCT) model of severe pulmonary hypertension; assay: Efficacy study in monocrotaline model of severe pulmonary hypertension; assay type: in vivo, Sprague-Dawley rats; conditions: MCT 60 mg/kg s.c.; oral aspiration, 2-weeks of treatment
Description: Male Sprague-Dawley rats are tagged, weighed, and randomly divided into control and MCT-treated groups. The rats in the MCT-treated group are administered a single dose of MCT (60 mg/kg, s.c.), then treated with either (1) vehicle control; (2) sildenafil (30 mg/kg, p.o., b.i.d.); or (3) the compound of Formula I at an appropriate amount and frequency (formulated in 3% glycerol in PBS; pH=4) via oral aspiration.
Following 2-weeks of treatment, the animals are anesthetized with ketamine/xylazine for terminal monitoring of pulmonary and systemic arterial pressures along with heart rate. The lungs of each animal are then harvested for histologic analysis.

SMILES: C[C@@H]1CN(CCNc2cnc3ccc(-c4nc[nH]c4-c4cc(Cl)ccc4F)nc3c2)C[C@H](C)N1 [compound of Formula I, 6-(5-(5-chloro-2-fluorophenyl)-1H-imidazol-4-yl)-N-(2-((3S,5R)-3,5-dimethylpiperazin-1-yl)ethyl)-1,5-naphthyridin-3-amine]
- pKi [1]: 9.50 to 10.40
- intestinal fibrosis [2]: slow or prevent intestinal fibrosis
- intestinal fibrosis [3]: slow, halt or reverse intestinal fibrosis
- progression of pulmonary hypertension [4]: slow, halt or reverse the progression of pulmonary hypertension
